Where two headings read alike, the source gives them in different places. Numbered stars: 1 amine (or outer) side, 2 acyl side, 3 side chain; on linkers, the order of the positions; unused ones are H or OH. Bridge positions count the residues as written; N and C are the ends. Square brackets hold non-standard residues; d marks the D form. Peptide text beside a SMILES is read from it. * marks the point of attachment. Bip(4'-NHAc) = CC(=O)Nc1ccc(-c2ccc(C[C@H](N)C(=O)O)cc2)cc1; X1 = O=C(C[C@H](N[*:1])C(=O)[*:2])NS(=O)(=O)c1ccc(Cl)cc1F; Phe(4-CH2CH2COOH) = N[C@@H](Cc1ccc(CCC(=O)O)cc1)C(=O)O; Phe(3-CF3) = N[C@@H](Cc1cccc(C(F)(F)F)c1)C(=O)O; Ala(morpholin-4-yl) = N[C@@H](CN1CCOCC1)C(=O)O; Phe(4-CONH2) = NC(=O)c1ccc(C[C@H](N)C(=O)O)cc1; Phe(4-COOH) = N[C@@H](Cc1ccc(C(=O)O)cc1)C(=O)O; Bip = N[C@@H](Cc1ccc(-c2ccccc2)cc1)C(=O)O; Phe(4-Cl) = N[C@@H](Cc1ccc(Cl)cc1)C(=O)O; Phe(3-Me) = Cc1cccc(C[C@H](N)C(=O)O)c1; Abu(3S-NH2) = C[C@H](N)[C@H](N)C(=O)O; Dap(CONH2) = NC(=O)NC[C@H](N)C(=O)O; Val(3-OH) = CC(C)(O)[C@H](N)C(=O)O; Ala(cPr) = N[C@@H](CC1CC1)C(=O)O; hCha = N[C@@H](CCC1CCCCC1)C(=O)O; hPhe = N[C@@H](CCc1ccccc1)C(=O)O; 3Pal = N[C@@H](Cc1cccnc1)C(=O)O; Cha = N[C@@H](CC1CCCCC1)C(=O)O; Carboxymethyl = O=C(O)C*; NMeA = CN[C@@H](C)C(=O)O; Orn = NCCC[C@H](N)C(=O)O; Dab = NCC[C@H](N)C(=O)O; Nva = CCC[C@H](N)C(=O)O
Legend:
[1] = target: T1, PD1-PDL1 protein-protein binding interaction [hPD1(25-167)-hIgG, hPD-L1 (19-239)-6xHis] (Homo sapiens, UniProt Q15116); experiment: HTRF Assay (TR-FRET); details: 5 nM hPD1-hIgG, 5 nM hPD-L1-6xHis, 24 hours at 25° C.
T1 construct: hPD1(25-167)-hIgG, BMS
T1 sequence (Q15116 25-167): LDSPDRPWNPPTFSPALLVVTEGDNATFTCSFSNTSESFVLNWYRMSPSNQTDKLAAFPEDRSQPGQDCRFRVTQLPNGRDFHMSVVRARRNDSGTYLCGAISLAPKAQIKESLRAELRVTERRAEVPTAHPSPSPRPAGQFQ
Experimental: A time-resolved fluorescence resonance energy transfer (TR-FRET) assay was employed to measure the inhibition of the PD1-PDL1 protein-protein binding interaction. The reaction buffer was prepared by mixing the HiBlock buffer and LANCE detection buffer (PerkinElmer, TRF1011F and CR97-100) at a 1:1 ratio. Assay reactions contained 5 nM human programmed cell death 1 [hPD1(25-167)-hIgG, BMS], 5 nM human programmed cell death ligand 1 [hPD-L1 (19-239)-6×His, BMS], in the presence of 1 nM LANCE Eu-W1024 Anti-Human IgG (Eu-anti hIgG, PerkinElmer, AD0074) and 20 nM SureLight Allophycocyanin-anti-6×His antibody (APC-anti-6×His, PerkinElmer, AD0059H). Test compounds were evaluated in a 10-point dose-response format with serial three-fold dilutions starting from a 2 uM top concentration. Reactions were carried out in a total volume of 10 uL in 384-well microtiter plates (Proxiplate white, PerkinElmer, 6008289). Plates were sealed and incubated for 24 hours at 25° C. After 24 hours, the TR-FRET signal was measured using a PerkinElmer EnVision multimode plate reader and the resulting ratiometric data set (signal at 665 nm/615 nm, multiplied by a factor of 10,000) was recorded. The concentration giving half-maximal inhibition (the IC50) was obtained by fitting the data to a four-parameter logistic equation using Graphpad Prism or Dotmatics.

[2] = target: T2, Alexa fluor-647 labeled human PD-L1-Ig binding to Jurkat cell line over-expressing human PD-1 (Homo sapiens, UniProt Q15116); experiment: Jurkat-PD-1 Cell Binding High-Content Screening Assay (CBA): Method 3 (Alexa fluor-647 labeled PD-L1-Ig); details: Jurkat-PD-1 cells, Alexa fluor-647 labeled PD-L1-Ig 177 nM
T2 construct: expressed in transfected cells; host or cells: Jurkat
T2 sequence (Q15116 25-288): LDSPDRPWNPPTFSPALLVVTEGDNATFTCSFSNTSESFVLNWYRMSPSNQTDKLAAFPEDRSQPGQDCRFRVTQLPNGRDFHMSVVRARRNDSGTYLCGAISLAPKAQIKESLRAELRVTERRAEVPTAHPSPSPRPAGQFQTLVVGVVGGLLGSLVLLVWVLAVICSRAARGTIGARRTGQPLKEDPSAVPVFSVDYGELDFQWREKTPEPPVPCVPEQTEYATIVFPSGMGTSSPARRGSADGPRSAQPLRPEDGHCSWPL
In short: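 Readout by high-content imaging of PFA-fixed, Hoechst-stained cells after 1 h with 177 nM (final) Alexa fluor-647 PD-L1-Ig. Compound was added first to hPD-1 Jurkat cells in RPMI plus 10% FCS for 2 h at 37 °C.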

[3] = target: T3, PE-labeled human PD-L1-Ig binding to Jurkat cell line over-expressing human PD-1 (Jurkat-PD-1) (Homo sapiens, UniProt Q15116); experiment: Jurkat-PD-1 Cell Binding High-Content Screening Assay (CBA): Method 2 (presence and absence of tween-20); details: Jurkat-PD-1 cells, PE-labeled PD-L1-Ig 20 nM; presence or absence of tween-20 not given; head μM; read-out: CBA Method 2 μM
T3 construct: expressed in transfected cells; host or cells: Jurkat
T3 sequence (Q15116 25-288): as above
In short: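 Compounds incubated with Jurkat cells overexpressing human PD-1 for 2 h at 37° C, tested with and without tween-20 to flag aggregation. PE-labeled human PD-L1-Ig (20 nM final) added in DMEM/10% FCS; binding read by high-content imaging.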

[4] = target: T3, PE-labeled human PD-L1-Ig binding to Jurkat cell line over-expressing human PD-1 (Jurkat-PD-1); experiment: Jurkat-PD-1 Cell Binding High-Content Screening Assay (CBA): Method 1; details: Jurkat-PD-1 cells, PE-labeled PD-L1-Ig; μM; read-out: CBA Method 1 μM
[5] = head μM, read-out: CBA Method 3 μM

| SMILES | IC50 ([1]; head μM) [µM] | IC50 ([2]; nM, read-out: CBA Method 3) [µM] | also measured |
| --- | --- | --- | --- |
| CC(=O)Nc1ccc(-c2ccc(C[C@@H]3NC(=O)CSC[C@@H](C(=O)N[C@@H](CCN)C(N)=O)NC(=O)[C@H](CCCN)NC(=O)[C@H](C(C)C)NC(=O)[C@H](CC4CCCCC4)NC(=O)[C@H](CCN)NC(=O)[C@@H](CC(C)C)NC(=O)[C@H](C)N(C)C(=O)[C@H](CCC(N)=O)NC(=O)[C@H](Cc4ccc(-c5ccccc5)cc4)NC(=O)[C@H](Cc4ccc(C(=O)O)cc4)NC(=O)[C@H](Cc4cccc(C)c4)NC(=O)[C@H](CC(=O)O)NC(=O)[C@H](Cc4ccc(OCC(=O)O)cc4)NC3=O)cc2)cc1 [Example 5173] ({CH2CO}-[Bip(4'-NHAc)]Y(Carboxymethyl)D[Phe(3-Me)][Phe(4-COOH)][Bip]Q[NMeA][dL][Dab][Cha]V[Orn]C[Dab]-NH2; thioether N-14) | 0.07 | – | IC50 [2, 5]: 0.02 µM |
| Cc1cccc(C[C@@H]2NC(=O)[C@H](CC(=O)O)NC(=O)[C@H](Cc3ccc(OCC(=O)O)cc3)NC(=O)[C@H](CCC3CCCCC3)NC(=O)CSC[C@@H](C(=O)N[C@@H](CCN)C(N)=O)NC(=O)[C@H](CCCN)NC(=O)[C@H](C(C)C)NC(=O)[C@H](CC3CCCCC3)NC(=O)[C@H](CCN)NC(=O)[C@@H](CC(C)C)NC(=O)[C@H](C)N(C)C(=O)[C@H](CCC(N)=O)NC(=O)[C@H](Cc3ccc(-c4ccccc4)cc3)NC(=O)[C@H](Cc3ccc(C(=O)O)cc3)NC2=O)c1 [Example 5186] ({CH2CO}-[hCha]Y(Carboxymethyl)D[Phe(3-Me)][Phe(4-COOH)][Bip]Q[NMeA][dL][Dab][Cha]V[Orn]C[Dab]-NH2; thioether N-14) | 0.03 | 0.0045 | – |
| Cc1cccc(C[C@@H]2NC(=O)[C@H](CC(=O)O)NC(=O)[C@H](Cc3ccc(CCC(=O)O)cc3)NC(=O)[C@H](CNC(N)=O)NC(=O)CSC[C@@H](C(=O)N[C@@H](CCN)C(N)=O)NC(=O)[C@H](CCCN)NC(=O)[C@H](C(C)C)NC(=O)[C@H](CC3CCCCC3)NC(=O)[C@H](CCN)NC(=O)[C@@H](CC(C)C)NC(=O)[C@H](C)N(C)C(=O)[C@H](CCC(N)=O)NC(=O)[C@H](Cc3ccc(-c4ccccc4)cc3)NC(=O)[C@H](Cc3ccc(C(=O)O)cc3)NC2=O)c1 [Example 5298] ({CH2CO}-[Dap(CONH2)][Phe(4-CH2CH2COOH)]D[Phe(3-Me)][Phe(4-COOH)][Bip]Q[NMeA][dL][Dab][Cha]V[Orn]C[Dab]-NH2; thioether N-14) | 0.01 | 0.0005 | – |
| CC(C)C[C@H]1NC(=O)[C@H](C)N(C)C(=O)[C@H](Cc2ccc(C(N)=O)cc2)NC(=O)[C@H](Cc2ccc(-c3ccccc3)cc2)NC(=O)[C@H](CCc2ccccc2)NC(=O)[C@H](Cc2cccc(C(F)(F)F)c2)NC(=O)[C@H](CC(=O)O)NC(=O)[C@H](Cc2ccc(C(=O)O)cc2)NC(=O)[C@H]([C@H](C)N)NC(=O)CSC[C@@H](C(=O)N[C@@H](CCN)C(N)=O)NC(=O)[C@H](CCC(N)=O)NC(=O)[C@H](C(C)(C)O)NC(=O)[C@H](CC2CCCCC2)NC(=O)[C@H](CCN)NC1=O [Example 5206] ({CH2CO}-[Abu(3S-NH2)][Phe(4-COOH)]D[Phe(3-CF3)][hPhe][Bip][Phe(4-CONH2)][NMeA][dL][Dab][Cha][Val(3-OH)]QC[Dab]-NH2; thioether N-14) | 0.05 | – | IC50 [2, 5]: 0.01 µM |
| Cc1cccc(C[C@@H]2NC(=O)[C@H](CC(=O)O)NC(=O)[C@H](Cc3ccc(OCC(=O)O)cc3)NC(=O)[C@H](CC3CC3)NC(=O)CSC[C@@H](C(=O)N[C@@H](CCN)C(N)=O)NC(=O)[C@H](CCCN)NC(=O)[C@H](C(C)C)NC(=O)[C@H](CC3CCCCC3)NC(=O)[C@H](CCN)NC(=O)[C@@H](CC(C)C)NC(=O)[C@H](C)N(C)C(=O)[C@H](CCC(N)=O)NC(=O)[C@H](Cc3ccc(-c4ccccc4)cc3)NC(=O)[C@H](Cc3ccc(C(=O)O)cc3)NC2=O)c1 [Example 5185] ({CH2CO}-[Ala(cPr)]Y(Carboxymethyl)D[Phe(3-Me)][Phe(4-COOH)][Bip]Q[NMeA][dL][Dab][Cha]V[Orn]C[Dab]-NH2; thioether N-14) | 0.01 | 0.0023 | – |
| Cc1cccc(C[C@@H]2NC(=O)[C@H](CC(=O)O)NC(=O)[C@H](Cc3ccc(OCC(=O)O)cc3)NC(=O)[C@H](CN3CCOCC3)NC(=O)CSC[C@@H](C(=O)N[C@@H](CCN)C(N)=O)NC(=O)[C@H](CCC(=O)O)NC(=O)[C@H](C(C)C)NC(=O)[C@H](CC3CCCCC3)NC(=O)[C@H](CCN)NC(=O)[C@@H](CC(C)C)NC(=O)[C@H](C)N(C)C(=O)[C@H](CCC(N)=O)NC(=O)[C@H](Cc3ccc(-c4ccccc4)cc3)NC(=O)[C@H](CCc3ccccc3)NC2=O)c1 [Example 5212] ({CH2CO}-[Ala(morpholin-4-yl)]Y(Carboxymethyl)D[Phe(3-Me)][hPhe][Bip]Q[NMeA][dL][Dab][Cha]VEC[Dab]-NH2; thioether N-14) | 0.02 | 0.0039 | – |
| Cc1cccc(C[C@@H]2NC(=O)[C@H](CC(=O)O)NC(=O)[C@H](Cc3ccc(OCC(=O)O)cc3)NC(=O)[C@H](Cc3ccc(Cl)cc3)NC(=O)CSC[C@@H](C(=O)N[C@@H](CCN)C(N)=O)NC(=O)[C@H](CCCN)NC(=O)[C@H](C(C)C)NC(=O)[C@H](CC3CCCCC3)NC(=O)[C@H](CCN)NC(=O)[C@@H](CC(C)C)NC(=O)[C@H](C)N(C)C(=O)[C@H](CCC(N)=O)NC(=O)[C@H](Cc3ccc(-c4ccccc4)cc3)NC(=O)[C@H](Cc3ccc(C(=O)O)cc3)NC2=O)c1 [Example 5288] ({CH2CO}-[Phe(4-Cl)]Y(Carboxymethyl)D[Phe(3-Me)][Phe(4-COOH)][Bip]Q[NMeA][dL][Dab][Cha]V[Orn]C[Dab]-NH2; thioether N-14) | 0.08 | 0.001 | – |
| CCC[C@@H]1NC(=O)CSC[C@@H](C(=O)N[C@@H](CCN)C(N)=O)NC(=O)[C@H](CCCN)NC(=O)[C@H](C(C)C)NC(=O)[C@H](CC2CCCCC2)NC(=O)[C@H](CCN)NC(=O)[C@@H](CC(C)C)NC(=O)[C@H](C)N(C)C(=O)[C@H](CCC(N)=O)NC(=O)[C@H](Cc2ccc(-c3ccccc3)cc2)NC(=O)[C@H](Cc2ccc(C(=O)O)cc2)NC(=O)[C@H](Cc2cccc(C)c2)NC(=O)[C@H](CC(=O)O)NC(=O)[C@H](Cc2ccc(OCC(=O)O)cc2)NC1=O [Example 5297] ({CH2CO}-[Nva]Y(Carboxymethyl)D[Phe(3-Me)][Phe(4-COOH)][Bip]Q[NMeA][dL][Dab][Cha]V[Orn]C[Dab]-NH2; thioether N-14) | – | – | IC50 ([1]; nM): 0.0023 µM |
| CC(C)C[C@H]1NC(=O)[C@H](C)N(C)C(=O)[C@H](CCC(N)=O)NC(=O)[C@H](Cc2ccc(-c3ccccc3)cc2)NC(=O)[C@H](Cc2ccc(C(=O)O)cc2)NC(=O)[C@H](Cc2cccc(C(F)(F)F)c2)NC(=O)[C@H](CC(=O)NS(=O)(=O)c2ccc(Cl)cc2F)NC(=O)[C@H](Cc2ccc(C(=O)O)cc2)NC(=O)[C@H](CN2CCOCC2)NC(=O)CSC[C@@H](C(=O)N[C@@H](CCN)C(N)=O)NC(=O)[C@H](CCCN)NC(=O)[C@H](C(C)C)NC(=O)[C@H](CC2CCCCC2)NC(=O)[C@H](CCN)NC1=O [Example 5081] ({CH2CO}-[Ala(morpholin-4-yl)][Phe(4-COOH)][X1][Phe(3-CF3)][Phe(4-COOH)][Bip]Q[NMeA][dL][Dab][Cha]V[Orn]C[Dab]-NH2; thioether N-14) | – | – | IC50 [3]: 0.113 µM; IC50 [4]: 0.173 µM |
| Cc1cccc(C[C@@H]2NC(=O)[C@H](CC(=O)O)NC(=O)[C@H](Cc3ccc(OCC(=O)O)cc3)NC(=O)[C@H](CN3CCOCC3)NC(=O)CSC[C@@H](C(=O)N[C@@H](CCN)C(N)=O)NC(=O)[C@H](CCCN)NC(=O)[C@H](C(C)C)NC(=O)[C@H](Cc3cccnc3)NC(=O)[C@H](CCN)NC(=O)[C@@H](CC(C)C)NC(=O)[C@H](C)N(C)C(=O)[C@H](CCC(N)=O)NC(=O)[C@H](Cc3ccc(-c4ccccc4)cc3)NC(=O)[C@H](Cc3ccc(C(=O)O)cc3)NC2=O)c1 [Example 5039] ({CH2CO}-[Ala(morpholin-4-yl)]Y(Carboxymethyl)D[Phe(3-Me)][Phe(4-COOH)][Bip]Q[NMeA][dL][Dab][3Pal]V[Orn]C[Dab]-NH2; thioether N-14) | – | – | IC50 [3]: 0.0607 µM; IC50 [4]: 0.0729 µM |
